Reference: US20190254299A1, “METHODS OF HANDLING AVOCADOS AND SYSTEM” (AGROFRESH INC., priority 2012, published 2019)

What was measured:
Assay type in all cases: in vivo
[1] = tested on: avocados; experiment: Skin color on day 8, Example 3; design: key: 1: full green; 2: green with traces of brown; 3: half green and half brown; 4: brown with traces of green; 5: purple-black; conditions: 1000 ppb MCP
Protocol: (§1) Avocado skin color was rated using the following scale: • 1=full green • 2=green with traces of brown • 3=half green and half brown • 4=brown with traces of green • 5=purple-black
Avocados were harvested in Mexico and shipped to Pennsylvania, USA. 48 fruits were tested. When the fruits reached pulp firmness of 71 N (16 lbf), half of the fruits were exposed to atmosphere having 1000 ppb of MCP at 21.1° C. for 12 hours and half were not. Immediately after treatment, fruits were placed in MAP bags. The number of fruits per bag was either 1, 2, 3, 4, or 10. Two MCP-treated fruits were left out of any MAP, and two fruits not exposed to MCP were also left out of any MAP. All fruits were then stored at 21° C. (70° F.). On the eighth day after exposure to atmosphere containing MCP, fruits were tested with the following results. The results shown are the averages for all the fruits tested in each category.
Avocados were harvested and shipped as in Example 2. Treatment was performed when pulp thinness reached 98 N (22 lbf). 50 fruits were tested. Otherwise the treatment and handling was the same as in Example 2. Results (average of all fruits tested in each category) were as follows: […]

[2] = tested on: avocados; experiment: Skin color rating of avocados, Example 1 (California); design: key: 1 = full green, 3 = half green/half brown, 5 = purple-black
Excerpt: as §1
Avocados were harvested in Oxnard, Calif., USA and packed in cardboard boxes and shipped to Sacramento, Calif, USA. After 2 days of transportation part of the avocados were packed in MAP bags. The appropriate weight of avocados was placed in each bag after harvest and shipment. Bags were placed in RPC (Recycle Plastic Container) carrying devices. Avocados then were stored at room temperature (22° C.).
The Test Protocol that was used was as follows. 60 MAP bags were packed. Each hag held approximately 1.7 kg (3.8 lb) of avocados. Three such bags were packed in each RPC. Total weight of avocados in MAP bags was approximately 102 kg. Approximately 51 kg of avocados were placed into RPC identical to those used for the MAP bags. The MAP-packaged avocados were packaged as follows: Nine fruits, approximately 1.7 kg (3.8 lb) were carefully placed into MAP bags, and the bags were sealed by twisting the open side of the bag, folding down the twisted end, and placing a rubber band around the twisted and folded end of the bag.
Avocados were harvested with a very high firmness (not possible to measure with FTA Machines (Firmness Texture Analyzer)). The FTA higher limit was 156 N (351 bf). To monitor the ripening process of the avocados, extra fruits were bagged in MAP bags and the firmness was monitored every day, twice a day until the fruits achieve an average firmness of 111 N (25 lbf). All avocados were kept at room temperature (22° C.) until achieving an average firmness of 111 N (251 bf).
After achieving an average firmness of 111 N (25 lbf) the avocados were randomly divided into treatment sets as follows:
On the same day the avocados achieved 111 N (25 lbf) of average firmness, each treatment set was marked, placed in a hermetical chamber at room temperature (22° C.). All chambers were of equal size and packed the same way. Treatment was for 12 hr. In the chambers for the 3 “MCP” treatment groups, at the beginning of the treatment period, SmartFresh™ SmartTabs™ tablets (AgroFresh, Inc.) were placed in the chamber. The amount of SmartFresh™ SmartTabs™ tablets was chosen to achieve the indicated concentration of 1-methylcyclopropene in the atmosphere of the chamber. The SmartTabs™ tablets were contacted with water in the normal way to release 1-MCP.
After the treatment in the chambers, the RPCs were moved into racks at room temperature for storage and observation. Avocados remained in the same bags throughout the packing, treatment in the chamber, and subsequent storage. Evaluation for skin color and pulp firmness was as follows. Day “zero” was the day the avocados were removed from the chamber and placed in storage. Each test result was the average of 12 fruits.

[3] = tested on: avocados; experiment: Additional RipeLock applications, Example 8; conditions: seven days at 22° C.
Excerpt: Avocados are harvested, handled, and tested as in previous examples. Control samples have no bag and no SmartFresh (1-methylcyclopropene or 1-MCP) application. SmartFresh samples have no bags but with 500 ppb SmartFresh (1-methylcyclopropene or 1-MCP) application. MAP samples use the 31b MAP bags but no SmartFresh (1-methylcyclopropene or 1-MCP) application. RipeLock samples have the 3 lb MAP bags with various concentrations of SmartFresh (1-methylcyclopropene or 1-MCP) applications, including 10 ppb, 50 ppb, 100 ppb, 500 ppb, 1500 ppb, 3000 ppb, and 4500 ppb. Average fruit in each sample is about 3.8 lb. Ethylene is treated after packing at 200 ppm for twenty-four hours. Evaluations are performed seven days at 22° C. after SmartFresh (1-methylcyclopropene or 1-MCP) applications.
Data of pulp firmness of avocado tested are shown in FIG. 6 (with ethylene) and FIG. 7 (without ethylene).

## CC1=CC1 [MCP, 1-methylcyclopropene]
[1]; MAP bag
  Skin Color on Day 8, Color Rating: 4.2
[1]; no bag
  Skin Color on Day 8, Color Rating: 5
[2]; MAP bag, 300 ppb MCP, day 0
  Skin Color ratings: 1.7
[2]; MAP bag, 300 ppb MCP, day 1
  Skin Color ratings: 2.9
[2]; MAP bag, 300 ppb MCP, day 2
  Skin Color ratings: 2.3
[2]; MAP bag, 300 ppb MCP, day 3
  Skin Color ratings: 2.8
[2]; MAP bag, 300 ppb MCP, day 4
  Skin Color ratings: 2.3
[2]; MAP bag, 600 ppb MCP, day 0
  Skin Color ratings: 1.7
[2]; MAP bag, 600 ppb MCP, day 1
  Skin Color ratings: 2.3
[2]; MAP bag, 600 ppb MCP, day 2
  Skin Color ratings: 2.3
[2]; MAP bag, 600 ppb MCP, day 3
  Skin Color ratings: 2.2
[2]; MAP bag, 600 ppb MCP, day 4
  Skin Color ratings: 2.1
[2]; MAP bag, 900 ppb MCP, day 0
  Skin Color ratings: 1.6
[2]; MAP bag, 900 ppb MCP, day 1
  Skin Color ratings: 2.3
[2]; MAP bag, 900 ppb MCP, day 2
  Skin Color ratings: 2.3
[2]; MAP bag, 900 ppb MCP, day 3
  Skin Color ratings: 2.3
[2]; MAP bag, 900 ppb MCP, day 4
  Skin Color ratings: 2.4
[2]; No Bag, 600 ppb MCP, day 0
  Skin Color ratings: 2.6
[2]; No Bag, 600 ppb MCP, day 1
  Skin Color ratings: 3.0
[2]; No Bag, 600 ppb MCP, day 2
  Skin Color ratings: 2.8
[2]; No Bag, 600 ppb MCP, day 3
  Skin Color ratings: 3.8
[2]; No Bag, 600 ppb MCP, day 4
  Skin Color ratings: 3.4
[3]; rate of 1500 ppb in MAP bags
  firmness and skin color by application rate: best result for both firmness and skin color
[3]; rates equal or higher than 500 ppb
  combined effect of MAP bags and SmartFresh applications: synergistic effect
